Data set [1] has as its system RH30 rhabdomyosarcoma cells. Nature of the data set: Matrigel-coated transwell invasion assay, RH30 cells. Type of data set: cell-based. The following applies: % invasive cells vs non-treated control. The procedure:
(§1) 10^5 RH30 or RD cells were plated in the upper chamber of a Matrigel-coated transwell (Corning) in 0.1 mL medium without FBS. Cells were previously incubated with different concentrations (0 nM, 100 nM, 200 nM, 500 nM and 1000 nM) of the peptides and peptide dimer for 48 hours, being also present in the medium during the cell invasion assay. In the lower chamber, 0.6 mL of medium with FBS was added. Cells were incubated at 37° ° C. for 24 hours.
(§2) After that, cells were fixed with 4% paraformaldehyde (Sigma) for 10 minutes, followed by washing with PBS. After removal of the Matrigel and remaining cells from the upper face of the membrane with a cotton swab, the cells present on the lower face were stained with a Hoechst dilution (Sigma) and were counted (5 fields for each well) with an inverted fluorescence microscope Nikon with a 10× objective. All experiments were made in triplicate. In Table 6 the % Invasiveness represents the mean percentage of invasive cells with respect to their controls.

The nature of data set [2]: In vitro stability, half-life in human plasma. In kind it is in vitro ADME. The conditions noted are these: 90% human plasma, 37° C., RP-HPLC, read-out: t½ (hours) in human plasma (converted). The procedure: The peptides and peptide dimer synthesized and prepared in accordance with Example 1 were dissolved in water at a concentration of 6 mg/mL and warmed up to 37° C.
Human plasma was obtained as a lyophilized solid (K3 EDTA Plasma, BBI Solutions, code S112-1), reconstituted with sterile 0.9% sodium chloride solution and stored at −20° C. Human plasma was thawed and incubated at 37° C. before use.
The peptides and peptide dimer were incubated in 90% human plasma at 37° C. for different times and then precipitated with two volume equivalents of methanol. The samples were cooled in an acetone-carbon dioxide bath for a few seconds and centrifuged for 12 minutes at 4° C. at approximately 10,000 rpm. The supernatant was filtered with a 0.45 μm PVDF filter and analyzed in triplicate by RP-HPLC using an isocratic method (Eluent A=0.1% TFA in water; Eluent B=0.07% TFA in ACN, Column=Kromasil C8, 100 Å, 5 μm, 250×4.6 mm, Flow=1 mL/min, Wavelength: 220 nm, Injection volume=20 μL, Temperature=60° C.). The disappearance of the compound was determined in relation to the area of the initial time to calculate its half-life.

The test system of data set [3] is RD rhabdomyosarcoma cells. Nature of the data set: Matrigel-coated transwell invasion assay, RD cells. Type of data set: cell-based. The conditions noted are these: % invasive cells vs non-treated control. The procedure: as §1, §2
Setting [4] is: 500 nM peptide, listed as Octanoyl-SEQ ID NO: 5—NH2.

Read-outs that look alike come from different tables or passages of the source. Marks after values point to notes of the source that are not given here. *1 amine or outer side, *2 acyl side, *3 side chain or, on linkers, in order; H or OH if unused. Where a SMILES comes first, the peptide text is derived from it. Bridges are numbered along the chain shown (N, C = ends). Roman numbers before positions name the chains, in order. [ ]: non-standard residue; d: D form. The star is where a group is joined. Phe(2,4,6-Me3) = Cc1cc(C)c(C[C@H](N)C(=O)O)c(C)c1; X1 = Cc1cc(C)c(CC(N[*:1])C(=O)[*:2])c(C)c1; pGlu = O=C1CC[C@@H](C(=O)O)N1; Octanoyl = CCCCCCCC(=O)*

For `CCCCCCCC(=O)N[C@@H](CCCCN)C(=O)N[C@@H](CCCNC(=N)N)C(=O)N[C@@H](CC(=O)O)C(=O)N[C@@H](CO)C(=O)N[C@@H](CO)C(=O)N[C@@H](CC(N)=O)C(=O)N[C@@H](CO)C(=O)N[C@@H](CCSC)C(=O)N[C@@H](CC(=O)O)C(=O)N[C@@H](CC(C)C)C(=O)N1CCC[C@H]1C(=O)N[C@@H](CCC(=O)O)C(=O)NC(Cc1c(C)cc(C)cc1C)C(=O)N[C@@H](CCCCN)C(N)=O` (stereo partly drawn) [Octanoyl-SEQ ID NO: 8-NH2, Octanoyl-Lys-Arg-Asp-Ser-Ser-Asn-Ser-Met-Asp-Leu-Pro-Glu-Msa-Lys-NH2] (Octanoyl-KRDSSNSMDLPE[X1]K-NH2), the “% Invasiveness RH30” value in data set [1] (100 nM peptide) turned out to be 88.38%; in data set [1] (200 nM peptide) it was 99.30%; in data set [1] (500 nM peptide) it was 71.92%; in data set [1] (1000 nM peptide), 74.06%. Also, the half-life at 0.6 mg/mL in data set [2] is 3.6 h. For the same compound, the “% Invasiveness RD” value is listed as 75.55% in data set [3] (100 nM peptide); 113.22% in data set [3] (200 nM peptide); 63.27% in data set [3] (500 nM peptide); 15.89* % in data set [3] (1000 nM peptide); “significant decrease” in data set [3] (1000 nM peptide, listed as Octanoyl-SEQ ID NO: 8—NH2).
As to `CC(=O)N[C@@H](CCCCN)C(=O)N[C@@H](CCCNC(=N)N)C(=O)N[C@@H](CC(=O)O)C(=O)N[C@@H](CO)C(=O)N[C@@H](CO)C(=O)N[C@@H](CC(N)=O)C(=O)N[C@@H](CO)C(=O)N[C@@H](CS)C(=O)N[C@@H](CC(=O)O)C(=O)N[C@@H](CC(C)C)C(=O)N1CCC[C@H]1C(=O)N[C@@H](CCC(=O)O)C(=O)NC(Cc1c(C)cc(C)cc1C)C(=O)N[C@@H](CCCCN)C(N)=O` (stereo partly drawn) [Ac-SEQ ID NO: 5-NH2, Ac-Lys-Arg-Asp-Ser-Ser-Asn-Ser-Cys-Asp-Leu-Pro-Glu-Msa-Lys-NH2] (Ac-KRDSSNSCDLPE[X1]K-NH2), the “% Invasiveness RH30” value is recorded as 24.83* % in data set [1] (100 nM peptide); “significant reduction” in data set [1] (100 nM peptide, listed as Ac-SEQ ID NO: 5—NH2); 18.49* % in data set [1] (500 nM peptide). Further, the half-life at 0.6 mg/mL in data set [2] was 0.23 h. For the same compound, the “% Invasiveness RD” value in data set [3] (100 nM peptide) is reported as 100.80%; in data set [3] (500 nM peptide), 35.59%.
With `CCCCCCCC(=O)N[C@@H](CCCCN)C(=O)N[C@@H](CCCNC(=N)N)C(=O)N[C@@H](CC(=O)O)C(=O)N[C@@H](CO)C(=O)N[C@@H](CO)C(=O)N[C@@H](CC(N)=O)C(=O)N[C@@H](CO)C(=O)N[C@@H](CS)C(=O)N[C@@H](CC(=O)O)C(=O)N[C@@H](CC(C)C)C(=O)N1CCC[C@H]1C(=O)N[C@@H](CCC(=O)O)C(=O)N[C@@H](Cc1c(C)cc(C)cc1C)C(=O)N[C@@H](CCCCN)C(N)=O` [Octanoyl-SEQ ID NO: 5-NH2, Octanoyl-Lys-Arg-Asp-Ser-Ser-Asn-Ser-Cys-Asp-Leu-Pro-Glu-Msa-Lys-NH2] (Octanoyl-KRDSSNSCDLPE[Phe(2,4,6-Me3)]K-NH2), the “% Invasiveness RH30” value in data set [1] (100 nM peptide) is on record as 120.81%; in data set [1] (500 nM peptide) it was 41.12* %; in data set [1] (setting [4]), “significant reduction”. Further, the half-life at 0.6 mg/mL in data set [2] is 0.15 h. The “% Invasiveness RD” value in data set [3] (100 nM peptide) is 56.90%; in data set [3] (500 nM peptide), 14.16* %; in data set [3] (setting [4]) it was “significant decrease”.
With “Ac-RDSSNSCDLPEF-NH2 [Ac-SEQ ID NO: 10-NH2, Ac-Arg-Asp-Ser-Ser-Asn-Ser-Cys-Asp-Leu-Pro-Glu-Phe-NH2, reference compound]”, the entries for the “% Invasiveness RH30” value in data set [1] (100 nM peptide) and in data set [1] (500 nM peptide) were 83.91% and 113.68%, respectively. For the same compound, the half-life at 0.6 mg/mL in data set [2] (human plasma (K3 EDTA)) is 0.32 h. The entries for the “% Invasiveness RD” value in data set [3] (100 nM peptide) and in data set [3] (500 nM peptide) were 106.77% and 59.90%, respectively.
Regarding `Cc1cc(C)c(C[C@H](NC(=O)[C@H](CCC(=O)O)NC(=O)[C@@H]2CCCN2C(=O)[C@H](CC(C)C)NC(=O)[C@H](CC(=O)O)NC(=O)[C@H](CSSC[C@H](NC(=O)[C@H](CO)NC(=O)[C@H](CC(N)=O)NC(=O)[C@H](CO)NC(=O)[C@H](CO)NC(=O)[C@H](CC(=O)O)NC(=O)[C@H](CCCNC(=N)N)NC(=O)[C@H](CCCCN)NC(=O)[C@@H]2CCC(=O)N2)C(=O)N[C@@H](CC(=O)O)C(=O)N[C@@H](CC(C)C)C(=O)N2CCC[C@H]2C(=O)N[C@@H](CCC(=O)O)C(=O)N[C@@H](Cc2c(C)cc(C)cc2C)C(=O)N[C@@H](CCCCN)C(N)=O)NC(=O)[C@H](CO)NC(=O)[C@H](CC(N)=O)NC(=O)[C@H](CO)NC(=O)[C@H](CO)NC(=O)[C@H](CC(=O)O)NC(=O)[C@H](CCCNC(=N)N)NC(=O)[C@H](CCCCN)NC(=O)[C@@H]2CCC(=O)N2)C(=O)N[C@@H](CCCCN)C(N)=O)c(C)c1` [(SEQ ID NO: 6-NH2)2 (disulfide bridge), (Pyr-Lys-Arg-Asp-Ser-Ser-Asn-Ser-Cys-Asp-Leu-Pro-Glu-Msa-Lys-NH2)2 (disulfide bridge)] (I: [pGlu]KRDSSNSCDLPE[Phe(2,4,6-Me3)]K-NH2 / II: [pGlu]KRDSSNSCDLPE[Phe(2,4,6-Me3)]K-NH2; disulfide I:9-II:9), the “% Invasiveness RH30” value in data set [1] (100 nM peptide) is given as 82.46* %; in data set [1] (100 nM peptide, listed as (SEQ ID NO: 6—NH2)2), “significant reduction”; in data set [1] (200 nM peptide), 70.84* %; in data set [1] (500 nM peptide) it was 78.26* %; in data set [1] (1000 nM peptide), 57.59* %. Besides, the half-life at 0.6 mg/mL in data set [2] is 33.1 h. For the same compound, the “% Invasiveness RD” value is given as 64.71% in data set [3] (500 nM peptide); 25.36* % in data set [3] (1000 nM peptide); “significant decrease” in data set [3] (1000 nM peptide, listed as (SEQ ID NO: 6—NH2)2).

The values are drawn from patent US12544431B2, “Peptides for the treatment of cancer and/or metastasis” (BCN PEPTIDES, S.A., priority 2019, dated 2026).
